Assay results as given in patent publication US20260070895A1, “CRYSTALLINE FORMS” (QUIMATRYX, S.L., priority 2022, published 2026).
Entries after “also recorded” stand apart in the source; their conditions may differ.

Assay: Photostability at solid state (chemical purity by HPLC after illumination)
Format: physicochemical
Conditions: for HPLC peak area, QTX125 RRT 1.00 / HPLC peak area, RRT 1.04 / degradation (in words) / HPLC peak area, RRT 1.12 / colour change of the solid material / HPLC peak area, RRT 1.08 / HPLC peak area, RRT 1.11 / HPLC peak area, RRT 1.20: solid-state; for degradation (in words): up to 171 hours
Procedure: The method for determining purity by HPLC—used throughout these examples—used the following parameters:
The photostability of novel crystalline forms of QTX125 was assessed at solid state and in solution. Where ‘forced illumination’ conditions were used, samples were illuminated at 12 Klux/hour and 2.8 UV W/m^2/hour. Samples were stored at a temperature of 30° C. Following incubation, the chemical purity of QTX125 was measured by HPLC.
The following index is provided to aid navigation of the data presented in Tables 3.1.1 to 3.3.6: • 3.1.x—Assessment of the photostability of QTX125 Form 2. • 3.2.x—Assessment of the photostability of amorphous QTX125. • 3.3.x—Assessment of the photostability of the QTX125 1:2 L-Lysine adduct. • 3.x.1—Samples (at solid state) stored in unsealed clear glass bottles, subject to forced illumination. • 3.x.2—Samples (at solid state) sealed under nitrogen in clear glass bottles, subject to forced illumination. • 3.x.3—Samples (at solid state) sealed under nitrogen in amber glass bottles, illuminated under ambient laboratory conditions • 3.x.4—Samples (at solid state) sealed under nitrogen in amber glass bottles, subject to forced illumination. • 3.x.5—Samples (in solution) sealed under nitrogen in amber glass bottles, illuminated under ambient laboratory conditions. • 3.x.6—Samples (in solution) sealed under nitrogen in amber glass bottles, subject to forced illumination.

[1] = sealed under nitrogen in amber glass bottles, ambient laboratory conditions, 0 hours
[2] = sealed under nitrogen in amber glass bottles, ambient laboratory conditions, 3 hours
[3] = sealed under nitrogen in amber glass bottles, ambient laboratory conditions, 26 hours
[4] = sealed under nitrogen in amber glass bottles, ambient laboratory conditions, 74 hours
[5] = sealed under nitrogen in amber glass bottles, ambient laboratory conditions, 171 hours
[6] = sealed under nitrogen in amber glass bottles, ambient laboratory conditions, 171 hours, listed as Form 2
[7] = sealed under nitrogen in amber glass bottles, forced illumination, 0 hours
[8] = sealed under nitrogen in amber glass bottles, forced illumination, 3 hours
[9] = sealed under nitrogen in amber glass bottles, forced illumination, 26 hours
[10] = sealed under nitrogen in amber glass bottles, forced illumination, 74 hours
[11] = sealed under nitrogen in amber glass bottles, forced illumination, 171 hours
[12] = sealed under nitrogen in amber glass bottles, forced illumination, 171 hours, listed as Form 2
[13] = sealed under nitrogen in clear glass bottles, forced illumination
[14] = sealed under nitrogen in clear glass bottles, forced illumination, 0 hours
[15] = sealed under nitrogen in clear glass bottles, forced illumination, 3 hours
[16] = sealed under nitrogen in clear glass bottles, forced illumination, 26 hours
[17] = sealed under nitrogen in clear glass bottles, forced illumination, 74 hours
[18] = sealed under nitrogen in clear glass bottles, forced illumination, 171 hours
[19] = unsealed clear glass bottles, forced illumination, 0 hours
[20] = unsealed clear glass bottles, forced illumination, 3 hours
[21] = unsealed clear glass bottles, forced illumination, 26 hours
[22] = unsealed clear glass bottles, forced illumination, 74 hours

## O=C(NO)c1ccc(CNC(=O)c2[nH]c(-c3ccc(O)cc3)cc2-c2ccoc2)cc1 [QTX125 Form 2, 3-(3-Furyl)-N-{4-[(hydroxyamino)carbonyl]benzyl}-5-(4-hydroxyphenyl)-1H-pyrrole-2-carboxamide]
At solid state
  photostability as compared to amorphous QTX125: enhanced photostability; also recorded: improved photostability
[1]
  HPLC peak area, QTX125 RRT 1.00: 98.21%
  HPLC peak area, RRT 1.04: 0.98%
[2]
  HPLC peak area, QTX125 RRT 1.00: 97.35%
  HPLC peak area, RRT 1.04: 1.06%
[3]
  HPLC peak area, QTX125 RRT 1.00: 98.11%
  HPLC peak area, RRT 1.04: 1.07%
[4]
  HPLC peak area, QTX125 RRT 1.00: 98.83%
  HPLC peak area, RRT 1.04: 0.55%
[5]
  HPLC peak area, QTX125 RRT 1.00: 98.12%
  HPLC peak area, RRT 1.04: 1.21%
[6]
  HPLC peak area, QTX125 RRT 1.00: 98.12%
  HPLC peak area, RRT 1.04: 1.21%
Sealed under nitrogen in amber glass bottles, ambient laboratory conditions
  degradation (in words): little evidence of degradation
[7]
  HPLC peak area, QTX125 RRT 1.00: 98.21%
  HPLC peak area, RRT 1.04: 0.98%
[8]
  HPLC peak area, QTX125 RRT 1.00: 98.23%
  HPLC peak area, RRT 1.04: 0.99%
[9]
  HPLC peak area, QTX125 RRT 1.00: 97.82%
  HPLC peak area, RRT 1.04: 1.22%
[10]
  HPLC peak area, QTX125 RRT 1.00: 97.70%
  HPLC peak area, RRT 1.04: 1.06%
[11]
  HPLC peak area, QTX125 RRT 1.00: 95.40%
  HPLC peak area, RRT 1.04: 2.55%
  HPLC peak area, RRT 1.12: 0.28%
[12]
  HPLC peak area, QTX125 RRT 1.00: 95.40%
  HPLC peak area, RRT 1.04: 2.55%
  HPLC peak area, RRT 1.12: 0.28%
Sealed under nitrogen in amber glass bottles, forced illumination
  degradation (in words): degrade slightly
[13]
  colour change of the solid material: change in colour from off white to dark green
  degradation (in words): degrade to two principal components
[14]
  HPLC peak area, QTX125 RRT 1.00: 98.21%
  HPLC peak area, RRT 1.04: 0.98%
[15]
  HPLC peak area, QTX125 RRT 1.00: 97.78%
  HPLC peak area, RRT 1.04: 1.29%
[16]
  HPLC peak area, QTX125 RRT 1.00: 96.16%
  HPLC peak area, RRT 1.04: 2.16%
[17]
  HPLC peak area, QTX125 RRT 1.00: 84.98%
  HPLC peak area, RRT 1.04: 5.99%
  HPLC peak area, RRT 1.08: 1.24%
  HPLC peak area, RRT 1.11: 0.52%
  HPLC peak area, RRT 1.20: 0.66%
[18]
  HPLC peak area, QTX125 RRT 1.00: 82.33%
  HPLC peak area, RRT 1.04: 9.95%
  HPLC peak area, RRT 1.08: 0.41%
  HPLC peak area, RRT 1.11: 0.86%
  HPLC peak area, RRT 1.20: 0.22%
Unsealed clear glass bottles, forced illumination
  colour change of the solid material: change in colour from off white to dark green
[19]
  HPLC peak area, QTX125 RRT 1.00: 98.21%
  HPLC peak area, RRT 1.04: 0.98%
[20]
  HPLC peak area, QTX125 RRT 1.00: 97.68%
  HPLC peak area, RRT 1.04: 1.38%
[21]
  HPLC peak area, QTX125 RRT 1.00: 95.59%
  HPLC peak area, RRT 1.04: 2.38%
[22]
  HPLC peak area, QTX125 RRT 1.00: 90.53%
  HPLC peak area, RRT 1.04: 4.90%
Unsealed clear glass bottles, forced illumination, 171 hours
  HPLC peak area, QTX125 RRT 1.00: 83.78%
